Molecular target: T1, rat EP1 receptor (Rattus norvegicus, UniProt P70597)
T1 construct: expressed in transfected cells; host or cells: COS-1 cells, transient transfection with Lipofectamine 2000
T1 sequence (P70597 1-405): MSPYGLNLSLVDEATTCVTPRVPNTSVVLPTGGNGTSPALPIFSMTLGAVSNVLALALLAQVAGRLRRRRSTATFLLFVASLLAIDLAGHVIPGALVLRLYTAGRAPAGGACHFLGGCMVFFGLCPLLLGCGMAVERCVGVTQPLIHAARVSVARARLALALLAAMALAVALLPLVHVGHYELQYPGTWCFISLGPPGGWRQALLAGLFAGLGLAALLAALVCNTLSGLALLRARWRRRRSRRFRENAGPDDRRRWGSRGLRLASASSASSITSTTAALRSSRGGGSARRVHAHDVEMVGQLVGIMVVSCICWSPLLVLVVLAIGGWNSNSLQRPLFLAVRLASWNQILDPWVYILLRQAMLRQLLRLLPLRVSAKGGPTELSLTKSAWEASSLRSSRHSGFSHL
Test: Test for confirmation of EP1 receptor antagonism: inhibition of prostaglandin E2-induced increase in intracellular calcium concentration in rat EP1 receptor-expressing COS-1 cells
Assay type: cell-based
Conditions: prostaglandin E2 10 nM, intracellular calcium fluorescence signal
Protocol: Test for Confirmation of EP1 Receptor Antagonism
(1) Preparation of Rat EP1 Expression Vector
Using Rat Kidney BD Marathon-Ready cDNA (Nippon Becton Dickinson Company, Ltd.) as a template, and using a forward primer shown in (SEQ ID NO:1) and a reverse primer shown in (SEQ ID NO:2), a first run of PCR was carried out using KOD-Plus-Ver 2.0 (Toyobo Co., Ltd.). Further, using this amplification product as a template, and using a forward primer shown in (SEQ ID NO:3) and a reverse primer shown in (SEQ ID NO:4), a second run of PCR was carried out in the same manner. The amplification product obtained by the second run of PCR was incorporated into a vector (pcDNA3.1 D/V5-His-TOPO (registered trademark), Invitrogen Japan K. K.). By a conventional method, the vector containing this amplification product was introduced into E. coli (One Shot TOP10 Competent Cells, Invitrogen Corporation) and transformed. This transformed E. coli was cultured in an LB agar medium for one day. After the culture, colonies were selected and cultured in an LB liquid medium containing 50 μg/mL of ampicillin. After the culture, the vector was purified using a QIAprep Spin Miniprep Kit (Qiagen K. K.). The base sequence of the insertion site of this vector (SEQ ID NO:5) was compared with the rat EP1 base sequence (Ptger1) registered as Accession No. NM_013100 in a publicly-known database (NCBI), and as a result, the base sequences completely matched except for a single base. Further, the amino acid sequence translated by the base sequence completely matched the amino acid sequence of the rat EP1 receptor registered as an NCBI Accession No. NP_037232. Therefore, it was confirmed that the cloned gene sequence was a base sequence of the rat EP1 receptor and the obtained amino acid sequence was that of the rat EP1 receptor. The pcDNA3.1 D/V5-His-TOPO (registered trademark) into which the nucleic acid shown in (SEQ ID NO:5) had been inserted was taken as a rat EP1-expressing vector.
(2) Preparation of Rat EP1 Receptor-Expressing Cells
COS-1 cells (Dainippon Sumitomo Pharma Co., Ltd.) were cultured until they reached confluence in an incubator at 37° C. under a 5% CO2 gas condition, using a D-MEM liquid medium (high glucose and L-glutamine contained, Invitrogen Corporation) to which a penicillin-streptomycin solution (Invitrogen Corporation, final concentration: 100 U/mL as benzylpenicillin; 100 μg/mL as streptomycin) as an antibiotic, MEM nonessential amino acids (Invitrogen Corporation, final concentration: 0.1 mM), and fetal calf serum (Sanko Junyaku Co., Ltd., final concentration: 10%) were added.
(2-2) COS-1 Cell Subculture
The cells that had reached confluence were stripped with 0.05% trypsin/0.53 mM EDTA•4Na (Invitrogen Japan K. K.) and resuspended in the liquid medium. The resuspended cells were diluted and cultured in the liquid medium at a spread ratio from 1:4 to 1:8.
(2-3) Preparation of Cells for Introduction of Rat EP1-Expressing Vector
The cells that had reached confluence were stripped with 0.05% trypsin/0.53 mM EDTA•4Na, and resuspended in a D-MEM liquid medium (high glucose and L-glutamine contained, Invitrogen Corporation) to which MEM nonessential amino acids (final concentration: 0.1 mM) and fetal calf serum (final concentration: 10%) were added. In each well of a Poly D-lysine-coated 96-well microplate (BD BioCoat (registered trademark), Nippon Becton Dickinson Company, Ltd.), this resuspended cell suspension culture was prepared to be 5×10^4 cells/well in 100 μL of the liquid medium, and 100 μL of the cell suspension was dispensed and seeded in each well. After seeding, the cells were cultured in an incubator at 37° C. under a 5% CO2 gas condition. Once the cells for introduction of a rat EP1-expressing vector were adhered (about 2 hours after seeding), introduction of the rat EP1-expressing vector was carried out in the following order.
(2-4) Introduction of Rat EP1-Expressing Vector […]

SMILES | IC50
CCCS(=O)(=O)NC(=O)c1cccc(Cn2c(-c3ccccc3)cc3cc(OC)ccc32)n1 [Example 4-12, 6-(5-methoxy-2-phenylindol-1-ylmethyl)-N-(propane-1-sulfonyl)pyridine-2-carboxamide] | 30 nM
COc1cc2cc(-c3ccsc3)n(Cc3cccc(-c4nnn[nH]4)n3)c2cc1F [Example 2-4, 6-fluoro-5-methoxy-1-[6-(1H-1,2,3,4-tetrazol-5-yl)pyridin-2-ylmethyl]-2-(thiophen-3-yl)-1H-indole] | 32 nM
CCC(C)c1cc2cc(OC)ccc2n1Cc1cccc(C(=O)NS(=O)(=O)CC)n1 (stereo not shown) [Example 4-10, 6-[2-(butan-2-yl)-5-methoxyindol-1-ylmethyl]-N-(ethanesulfonyl)pyridine-2-carboxamide] | 46 nM
CCC(C)c1cc2cc(OC)ccc2n1Cc1cccc(-c2nnn[nH]2)n1 (stereo not shown) [Example 5-1, 2-(butan-2-yl)-5-methoxy-1-[6-(1H-1,2,3,4-tetrazol-5-yl)pyridin-2-ylmethyl]-1H-indole] | 23 nM
CCC(C)c1cc2cc(OC)ccc2n1Cc1cccc(C(=O)NS(=O)(=O)C(C)C)n1 (stereo not shown) [Example 4-17, 6-[2-(butan-2-yl)-5-methoxyindol-1-ylmethyl]-N-(propane-2-sulfonyl)pyridine-2-carboxamide] | 49 nM
COc1cc2cc(-c3ccccc3)n(Cc3cccc(-c4nnn[nH]4)n3)c2cc1F [Example 5-3, 6-fluoro-5-methoxy-2-phenyl-1-[6-(1H-1,2,3,4-tetrazol-5-yl)pyridin-2-ylmethyl]-1H-indole] | 31 nM
COc1ccc2c(c1)cc(C1(C)CC1)n2Cc1ccc(-c2nnn[nH]2)o1 [Example 5-7, 5-methoxy-2-(1-methylcyclopropyl)-1-[5-(1H-1,2,3,4-tetrazol-5-yl)furan-2-ylmethyl]-1H-indole] | 64 nM
COc1ccc2c(c1)cc(-c1ccccc1)n2Cc1cccc(C(=O)NS(=O)(=O)C2CC2)n1 [Example 4-14, N-(cyclopropanesulfonyl)-6-(5-methoxy-2-phenylindol-1-ylmethyl)pyridine-2-carboxamide] | 63 nM
CCS(=O)(=O)NC(=O)c1cccc(Cn2c(-c3cc(F)ccc3F)cc3cc(OC)ccc32)n1 [Example 4-5, 6-[2-(2,5-difluorophenyl)-5-methoxyindol-1-ylmethyl]-N-(ethanesulfonyl)pyridine-2-carboxamide] | 47 nM
COc1ccc2c(c1)cc(-c1ccccc1)n2Cc1ccc(-c2nnn[nH]2)o1 [Example 2-2, 5-methoxy-2-phenyl-1-[5-(1H-1,2,3,4-tetrazol-5-yl)furan-2-ylmethyl]-1H-indole] | 42 nM
CCS(=O)(=O)NC(=O)c1cccc(Cn2c(-c3ccccc3)cc3cc(OC)c(F)cc32)n1 [Example 4-20, N-(ethanesulfonyl)-6-(6-fluoro-5-methoxy-2-phenylindol-1-ylmethyl)pyridine-2-carboxamide] | 40 nM
COc1cc2cc(-c3ccccc3)n(Cc3cccc(C(=O)NS(=O)(=O)C4CC4)n3)c2cc1F [Example 4-23, N-(cyclopropanesulfonyl)-6-(6-fluoro-5-methoxy-2-phenylindol-1-ylmethyl)pyridine-2-carboxamide] | 28 nM
CCCS(=O)(=O)NC(=O)c1cccc(Cn2c(-c3ccccc3)cc3cc(OC)c(F)cc32)n1 [Example 4-22, 6-(6-fluoro-5-methoxy-2-phenylindol-1-ylmethyl)-N-(propane-1-sulfonyl)pyridine-2-carboxamide] | 59 nM
COc1cc2cc(-c3ccoc3)n(Cc3cccc(-c4nnn[nH]4)n3)c2cc1Cl [Example 5-4, 6-chloro-2-(furan-3-yl)-5-methoxy-1-[6-(1H-1,2,3,4-tetrazol-5-yl)pyridin-2-ylmethyl]-1H-indole] | 35 nM
COc1cc2cc(C3(C)CC3)n(Cc3cccc(-c4nnn[nH]4)n3)c2cc1Cl [Example 5-6, 6-chloro-5-methoxy-2-(1-methylcyclopropyl)-1-[6-(1H-1,2,3,4-tetrazol-5-yl)pyridin-2-ylmethyl]-1H-indole] | 33 nM
COc1cc2cc(-c3ccccc3)n(Cc3cccc(-c4noc(=O)[nH]4)n3)c2cc1F [Example 6-6, 3-[6-(6-fluoro-5-methoxy-2-phenylindol-1-ylmethyl)pyridin-2-yl]-4,5-dihydro-1,2,4-oxadiazol-5-one] | 22 nM
COc1cc2cc(-c3ccccc3)n(Cc3cccc(-c4nnn[nH]4)n3)c2cc1Cl [Example 2-3, 6-chloro-5-methoxy-2-phenyl-1-[6-(1H-1,2,3,4-tetrazol-5-yl)pyridin-2-ylmethyl]-1H-indole] | 67 nM
CCC(C)c1cc2cc(OC)c(Cl)cc2n1Cc1cccc(C(=O)NS(=O)(=O)CC)n1 (stereo not shown) [Example 4-2, 6-[2-(butan-2-yl)-6-chloro-5-methoxyindol-1-ylmethyl]-N-(ethanesulfonyl)pyridine-2-carboxamide] | 31 nM
CCS(=O)(=O)NC(=O)c1cccc(Cn2c(-c3ccccc3)cc3cc(OC)ccc32)n1 [Example 1-12, N-(ethanesulfonyl)-6-(5-methoxy-2-phenylindol-1-ylmethyl)pyridine-2-carboxamide] | 81 nM
CCC(C)c1cc2cc(OC)ccc2n1Cc1cccc(C(=O)NS(=O)(=O)C2CC2)n1 (stereo not shown) [Example 4-18, 6-[2-(butan-2-yl)-5-methoxyindol-1-ylmethyl]-N-(cyclopropanesulfonyl)pyridine-2-carboxamide] | 31 nM
COc1ccc2c(c1)cc(-c1ccccc1)n2Cc1cccc(C(=O)NS(=O)(=O)C(C)C)n1 [Example 4-13, 6-(5-methoxy-2-phenylindol-1-ylmethyl)-N-(propane-2-sulfonyl)pyridine-2-carboxamide] | 37 nM
COc1cc2cc(-c3ccccc3)n(Cc3cccc(C(=O)NC#N)n3)c2cc1F [Example 8-7, N-cyano-6-(6-fluoro-5-methoxy-2-phenylindol-1-ylmethyl)pyridine-2-carboxamide] | 97 nM
COc1cc2cc(-c3ccccc3)n(Cc3cccc(C(=O)NS(C)(=O)=O)n3)c2cc1F [Example 4-19, 6-(6-fluoro-5-methoxy-2-phenylindol-1-ylmethyl)-N-(methanesulfonyl)pyridine-2-carboxamide] | 60 nM
COc1cc2cc(-c3ccsc3)n(Cc3cccc(C(=O)NS(C)(=O)=O)n3)c2cc1F [Example 1-5, 6-[6-fluoro-5-methoxy-2-(thiophen-3-yl)indol-1-ylmethyl]-N-(methanesulfonyl)pyridine-2-carboxamide] | 49 nM
CCCS(=O)(=O)NC(=O)c1cccc(Cn2c(C(C)CC)cc3cc(OC)ccc32)n1 (stereo not shown) [Example 4-16, 6-[2-(butan-2-yl)-5-methoxyindol-1-ylmethyl]-N-(propane-1-sulfonyl)pyridine-2-carboxamide] | 43 nM

From US8796247B2, “Indole derivative, and pharmacologically acceptable salt thereof” (Kissei Pharmaceutical Co., Ltd., priority 2011, dated 2014)
